From patent US8436160B2, “Isolated DNA fragment of the SPARC human promoter and its use for driving the expression of an heterologous gene in tumor cells” (Consejo Nacional de Investigaciones Cientificas y Tecnicas …, priority 2006, dated 2013)

Assays:
hMEC-1 cells = assay: Ad(I)-F512-TK lytic effect in monolayer with GCV prodrug; assay type: cell-based, human
Procedure: (§1) According to the present inventors' hypothesis, normal cells have more resistance to viral replication. In this case, adding a toxic gene would allow for the enhancement of the lytic capability in a specific manner in those cells wherein the SPARC promoter was active. Thus, in vitro assays with Ad(I)-F512-TK were carried out, in which the cells were also treated by adding ganciclovir (GCV) prodrug. […] Other analyzed endothelial cells were those of bovine aorta (BAEC, kindly provided by Helene Sage, Seattle, USA).

BAEC cells = assay: as above; assay type: cell-based, Bovine
Procedure: as §1

[1] = system: A375N (melanoma), HeLa (cervix) and T-47D (breast) cell lines; assay: Luciferase reporter promoter activity of SPARC promoter fragments; assay type: cell-based, human; conditions: pGL3 constructs; relative to pGL3-Basic; A375N expresses SPARC, HeLa and T-47D do not
Source text: The promoters obtained according to Example 2 were subcloned in the MluI/BglII, MluI/XhoI or NheI/XhoI sites of the pGL3-Basic plasmid (Promega Corp., Madison, Wis., USA) upstream of the luciferase reporter gene. All of the clonings was confirmed by restriction profiles and by sequencing the vectors (pGEM, TOPO and/or pGL3) with the universal primers T7 (TACGACTCACTATAGGG; SEQ ID NO 27); Sp6 (ATTTAGGTGACACTATAG; SEQ ID NO 28), T3 ([…]; SEQ ID NO 29) or P2 ([…]; SEQ ID NO 30) and P3 ([…]; SEQ ID NO 31).
The presence of the luciferase reporter gene allowed for the quantification of SPARC promoter activity in the 11 fragments obtained in Example 2, by measuring the luciferase enzymatic activity. The assay was performed in three cell lines, using the (melanoma) A375N line as a model since it expresses high SPARC levels and the (cervix) HeLa and (breast) T-47D lines, not expressing SPARC, according to the teachings of Example 1 above.
(§2) The cells were seeded in 24-well plates with a density of 4×10^4 cells/well. After 24 hours they were transfected using Lipofectamine2000 (Invitrogen Corp., Carlsbad, Calif.) according to the conditions indicated by the manufacturer. Each treatment was carried out at least in duplicate for each cell line, incubating 0.8 μg of treatment plasmid with 0.1 μg of pRL-CMV plasmid for 5 minutes with 50 μl DMEM medium without antibiotic and simultaneously, 1 μl Lipofectamine2000 with 50 μl of the same medium. These two preparations were mixed and incubated for 20 minutes at room temperature. The medium with cell serum was removed, washed with PBS and 200 μl high glucose DMEM was added without serum and without antibiotics; subsequently, 100 μl medium containing the lipofection mixture was added and 800 μl of culture medium corresponding to each cell line, supplemented with BFS, was added 4 hours later. The cells used were kept in a stove for 46 hours at 37° C. with 5% CO2. The Dual Luciferase Reporter Assay System kit (Promega Corp., Madison, Wis.) was used for the luciferase assay. This system implies the simultaneous expression of two individual reporter enzymes in the same system, allowing for the evaluation of the activity produced by the luciferase enzymes from the Firefly glow-worm (Photinus pyralis) and the Renilla coelenterate (Renilla reniformis) in only one sequential assay (Sherf, B. A. et al., Dual Luciferase Reporter Assay: An Advanced Co-Reporter Technology Integrating Firefly and Renilla Luciferase Assays. Promega Notes Magazine: 2-9, 1996). The data were normalized in the following way:
(§3) The data are expressed as induction amount relative to the activity obtained with the pGL3-Basic control plasmid (without promoter). […]

[2] = system: different tumor and normal cell lines; assay: Luciferase reporter promoter activity, F512 vs Spdel; assay type: cell-based; conditions: for promoter activity across cell lines vs SPARC expression: melanoma, colon (T84, LoVo), glioma (U87), cervix (HeLa)
Procedure: as §2, §3
(§4) The two promoters F512 and Spdel, having similar promoter activity and as identified by the method of Example 3A, were assessed in different tumor and normal cell lines (see references in Example 1).

melanoma line MEL888 = assay: Luciferase reporter promoter activity; assay type: cell-based, human
Procedure: as §2
(§5) The data are expressed as induction amount relative to the activity obtained with the pGL3-Basic control plasmid (without promoter). The pGl3-promoter plasmid (pGL3-prom, Promega Corp., Madison, Wis.) wherein the viral promoter from SV40 drives the expression of the luciferase enzyme, was used as a transfection control.
as §4

SB2 line = assay: Luciferase reporter promoter activity; assay type: cell-based, human
Procedure: as §2, §5, §4

T84 = assay: Luciferase reporter promoter activity; assay type: cell-based, human
Procedure: as §2, §5, §4

fibroblast line WI-38 VA = assay: Luciferase reporter promoter activity; assay type: cell-based, human
Procedure: as §2, §5, §4

endothelium BAEC line = assay: Luciferase reporter promoter activity; assay type: cell-based, Bovine
Procedure: The cells were seeded in 24-well plates with a density of 4×10^4 cells/well. After 24 hours they were transfected using Lipofectamine2000 (Invitrogen Corp., Carlsbad, Calif.) according to the conditions indicated by the manufacturer. Each treatment was carried out at least in duplicate for each cell line, incubating 0.8 μg of treatment plasmid with 0.1 μg of pRL-CMV plasmid for 5 minutes with 50 μl DMEM medium without antibiotic and simultaneously, 1 μl Lipofectamine2000 with 50 μl of the same medium. These two preparations were mixed and incubated for 20 minutes at room temperature. The medium with cell serum was removed, washed with PBS and 200 μl high glucose DMEM was added without serum and without antibiotics; subsequently, 100 μl medium containing the lipofection mixture was added and 800 μl of culture medium corresponding to each cell line, supplemented with BFS, was added 4 hours later. The cells used were kept in a stove for 46 hours at 37° C. with 5% CO2. […]
as §3, §4

## Nc1nc(O)c2ncn(COC(CO)CO)c2n1 [GCV, ganciclovir]
hMEC-1 cells
  sensitivity of cells to prodrug alone: sensitive to the presence of the prodrug alone
BAEC cells
  sensitivity of cells to prodrug: sensitive to the prodrug

## Spdel: complete SPARC promoter −1175/+71 with the 10 bp between the two GGA boxes deleted, SEQ ID NO 18
[1]
  promoter activity and specificity (luciferase): same activity than F512, in the A375N melanoma line
[2]; average, both in tumor and normal lines
  promoter activity with respect to the empty vector pGL3-Basic: 140 times higher
[2]
  promoter activity across cell lines vs SPARC expression: same activity in all lines
Melanoma line MEL888
  promoter activity with respect to the empty vector pGL3-Basic: 430 times higher

## −1175/+71: complete human SPARC promoter, SEQ ID NO 17
[1]
  promoter activity and specificity (luciferase): lower promoter activity in melanoma lines

B1: F512: human SPARC promoter fragment from base pair −513 to +35, SEQ ID NO 1 (nucleic acid, listed as Homo sapiens)
DNA: GCAGCTTGTCTTGTCTGTACAGTGGTAAGTCCTGGCCTTGCCTTTGTGGCAAATACAACCCCCTTGAATTGCTTGGCCCTTCTCAGCATTGCCTAATATTAGGGAGGACTCCTGTAAAGCTCACTGGTTAGAAGATCAAGACACTTGGGCCTGGTTCTGCCCCTGGGGGCCATTGGGTAATTCCTTGCAGTCTCCAGGCCTCACTTGCCCTCTGAACAAGAAAGAGGCTGTTCTGGGTCATCCCTCCAGGCCTGTCCAGCCCTGGCACTCTGTGAGTCGGTTTAGGCAGCAGCCCCGGAACAGATGAGGCAGGCAGGGTTGGGACGTTTGGTCAGGACAGCCCACCGCAAAAAGAGGAGGAAAGAAATGAAAGACAGAGACAGCTTTGGCTATGGGAGAAGGAGGAGGCCGGGGGAAGGAGGAGACAGGAGGAGGAGGGACCACGGGGTGGAGGGGAGATAGACCCAGCCCAGAGCTCTGAGTGGTTTCCTGTTGCCTGTCTCTAAACCCCTCCACATTCCCGCGGTCCTTCAGACTGCCCGGAGAGC
modifications: DNA fragment of the SPARC human promoter.
[1]
  promoter activity and specificity (luciferase): higher specificity and higher activity in the line expressing SPARC
[2]
  promoter activity across cell lines vs SPARC expression: lower activity in those lines with little or null SPARC expression
SB2 line
  promoter activity relative to the activity observed in A375N: approximately ⅓
T84
  promoter activity relative to melanoma lines: half the activity observed for the melanoma lines
Fibroblast line WI-38 VA
  promoter activity: active
Endothelium BAEC line
  promoter activity: active

B2: −120/+71: SPARC promoter fragment including the complete first exon, SEQ ID NO 24 (nucleic acid, listed as Homo sapiens)
DNA: GGGAGAAGGAGGAGGCCGGGGGAAGGAGGAGACAGGAGGAGGAGGGACCACGGGGTGGAGGGGAGATAGACCCAGCCCAGAGCTCTGAGTGGTTTCCTGTTGCCTGTCTCTAAACCCCTCCACATTCCCGCGGTCCTTCAGACTGCCCGGAGAGCGCGCTCTGCCTGCCGCCTGCCTGCCTGCCACTGAGG
[1]
  promoter activity and specificity (luciferase): higher unspecificity
